Laboratory results from ChEMBL document CHEMBL5291721, “A preclinical secondary pharmacology resource illuminates target-adverse drug reaction associations of marketed drugs” (Nat Commun, 2023).

Assays:
[1] = biological target: T1, 5-hydroxytryptamine receptor 1A (Homo sapiens, UniProt P08908); format: functional, cell-based
T1 sequence (P08908 whole entry): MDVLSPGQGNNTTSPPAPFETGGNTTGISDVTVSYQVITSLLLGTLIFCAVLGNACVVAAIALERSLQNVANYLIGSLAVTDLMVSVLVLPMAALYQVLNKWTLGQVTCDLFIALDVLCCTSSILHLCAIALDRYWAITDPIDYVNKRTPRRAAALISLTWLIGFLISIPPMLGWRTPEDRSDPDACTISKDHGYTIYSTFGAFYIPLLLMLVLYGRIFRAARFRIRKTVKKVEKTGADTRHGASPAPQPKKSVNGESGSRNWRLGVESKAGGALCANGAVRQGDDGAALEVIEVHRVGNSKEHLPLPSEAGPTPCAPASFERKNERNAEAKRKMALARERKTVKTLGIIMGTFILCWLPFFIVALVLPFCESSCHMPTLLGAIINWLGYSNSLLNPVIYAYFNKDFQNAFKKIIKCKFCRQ

Progesterone receptor = biological target: T2, Progesterone receptor (Homo sapiens, UniProt P06401); format: functional
T2 sequence (P06401 whole entry): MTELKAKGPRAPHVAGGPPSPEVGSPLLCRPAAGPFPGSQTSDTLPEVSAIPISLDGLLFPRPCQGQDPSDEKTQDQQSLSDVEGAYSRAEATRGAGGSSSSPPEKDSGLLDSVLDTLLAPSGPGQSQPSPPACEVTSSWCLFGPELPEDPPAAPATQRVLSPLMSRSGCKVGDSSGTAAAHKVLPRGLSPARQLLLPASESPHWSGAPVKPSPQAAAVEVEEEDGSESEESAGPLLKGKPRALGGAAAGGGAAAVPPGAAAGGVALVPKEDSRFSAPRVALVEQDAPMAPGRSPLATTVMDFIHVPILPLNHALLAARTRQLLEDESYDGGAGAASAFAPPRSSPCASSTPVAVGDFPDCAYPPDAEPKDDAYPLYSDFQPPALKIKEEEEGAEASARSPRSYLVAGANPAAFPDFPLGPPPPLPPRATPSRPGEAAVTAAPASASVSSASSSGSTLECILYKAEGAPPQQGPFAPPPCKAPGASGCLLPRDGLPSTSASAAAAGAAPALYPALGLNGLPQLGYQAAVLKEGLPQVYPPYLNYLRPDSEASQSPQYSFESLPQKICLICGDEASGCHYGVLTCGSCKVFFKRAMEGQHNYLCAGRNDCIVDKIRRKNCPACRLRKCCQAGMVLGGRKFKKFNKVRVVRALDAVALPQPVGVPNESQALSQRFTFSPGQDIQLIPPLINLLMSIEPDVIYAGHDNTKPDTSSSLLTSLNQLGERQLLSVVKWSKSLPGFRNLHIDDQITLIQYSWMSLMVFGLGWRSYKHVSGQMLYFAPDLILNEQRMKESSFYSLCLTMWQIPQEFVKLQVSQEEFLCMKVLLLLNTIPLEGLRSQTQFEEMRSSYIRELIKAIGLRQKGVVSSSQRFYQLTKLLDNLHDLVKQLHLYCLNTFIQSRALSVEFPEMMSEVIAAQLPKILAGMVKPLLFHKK

Acetylcholinesterase = Acetylcholinesterase (Homo sapiens, UniProt P22303); format: functional
[2] = biological target: T3, Alpha-2A adrenergic receptor (Homo sapiens, UniProt P08913)
T3 sequence (P08913 whole entry): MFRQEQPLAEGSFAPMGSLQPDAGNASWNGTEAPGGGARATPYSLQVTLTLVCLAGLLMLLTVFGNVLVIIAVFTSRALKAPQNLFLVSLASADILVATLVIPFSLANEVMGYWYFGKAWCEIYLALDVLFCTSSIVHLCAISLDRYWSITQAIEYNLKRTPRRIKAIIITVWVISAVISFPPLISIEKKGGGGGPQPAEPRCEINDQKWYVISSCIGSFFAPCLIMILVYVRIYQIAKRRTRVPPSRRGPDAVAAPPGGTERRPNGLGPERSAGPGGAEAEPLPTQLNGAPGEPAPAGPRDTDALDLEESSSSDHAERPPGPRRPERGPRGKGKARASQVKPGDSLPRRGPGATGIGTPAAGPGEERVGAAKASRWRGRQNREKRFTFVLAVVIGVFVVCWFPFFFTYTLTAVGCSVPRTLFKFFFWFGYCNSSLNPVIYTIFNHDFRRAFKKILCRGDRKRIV

D(1A) dopamine receptor = D(1A) dopamine receptor (Homo sapiens, UniProt P21728)
D(3) dopamine receptor = D(3) dopamine receptor (Homo sapiens, UniProt P35462)
Prothrombin = Prothrombin (Homo sapiens, UniProt P00734); format: functional
[3] = biological target: T4, Amine oxidase [flavin-containing] A (Homo sapiens, UniProt P21397); format: functional
T4 sequence (P21397 whole entry): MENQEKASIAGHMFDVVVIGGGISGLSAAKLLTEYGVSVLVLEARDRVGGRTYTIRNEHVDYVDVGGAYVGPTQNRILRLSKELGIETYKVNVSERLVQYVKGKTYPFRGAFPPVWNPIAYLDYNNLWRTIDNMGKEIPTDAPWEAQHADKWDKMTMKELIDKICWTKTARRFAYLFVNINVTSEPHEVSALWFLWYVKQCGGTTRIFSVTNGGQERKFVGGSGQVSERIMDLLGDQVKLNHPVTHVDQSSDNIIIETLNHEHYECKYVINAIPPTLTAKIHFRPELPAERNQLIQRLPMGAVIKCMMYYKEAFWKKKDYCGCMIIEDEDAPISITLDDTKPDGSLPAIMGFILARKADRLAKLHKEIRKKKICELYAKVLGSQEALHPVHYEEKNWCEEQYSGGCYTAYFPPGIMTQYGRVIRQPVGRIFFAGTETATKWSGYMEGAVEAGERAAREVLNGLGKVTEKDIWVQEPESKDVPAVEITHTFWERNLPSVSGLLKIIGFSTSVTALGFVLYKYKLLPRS

[4] = biological target: 3',5'-cyclic-AMP phosphodiesterase 4A (Homo sapiens, UniProt P27815); format: functional
[5] = biological target: Prostaglandin G/H synthase 1 (Homo sapiens, UniProt P23219); format: functional
[6] = biological target: Sodium-dependent noradrenaline transporter (Homo sapiens, UniProt P23975)
[7] = biological target: Sodium-dependent dopamine transporter (Homo sapiens, UniProt Q01959)
Also: assay procedure not described here.

Chain of Acetylcholinesterase (P22303 whole entry): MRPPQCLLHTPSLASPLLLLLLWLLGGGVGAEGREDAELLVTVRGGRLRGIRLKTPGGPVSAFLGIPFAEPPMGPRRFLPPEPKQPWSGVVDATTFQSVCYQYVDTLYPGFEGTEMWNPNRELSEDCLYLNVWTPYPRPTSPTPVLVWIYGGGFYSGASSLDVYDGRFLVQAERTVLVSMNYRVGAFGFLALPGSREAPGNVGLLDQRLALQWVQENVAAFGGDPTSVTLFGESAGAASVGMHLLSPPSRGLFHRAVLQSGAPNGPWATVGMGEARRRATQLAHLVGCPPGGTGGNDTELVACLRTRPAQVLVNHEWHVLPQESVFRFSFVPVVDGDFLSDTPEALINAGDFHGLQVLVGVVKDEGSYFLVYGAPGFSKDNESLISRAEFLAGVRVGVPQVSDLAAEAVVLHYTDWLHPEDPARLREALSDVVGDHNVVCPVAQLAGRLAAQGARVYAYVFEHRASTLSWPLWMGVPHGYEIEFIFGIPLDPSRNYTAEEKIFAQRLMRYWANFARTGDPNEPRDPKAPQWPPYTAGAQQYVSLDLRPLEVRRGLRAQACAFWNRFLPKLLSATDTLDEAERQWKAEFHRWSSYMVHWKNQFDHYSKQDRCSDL
Chain of 3',5'-cyclic-AMP phosphodiesterase 4A (P27815 whole entry): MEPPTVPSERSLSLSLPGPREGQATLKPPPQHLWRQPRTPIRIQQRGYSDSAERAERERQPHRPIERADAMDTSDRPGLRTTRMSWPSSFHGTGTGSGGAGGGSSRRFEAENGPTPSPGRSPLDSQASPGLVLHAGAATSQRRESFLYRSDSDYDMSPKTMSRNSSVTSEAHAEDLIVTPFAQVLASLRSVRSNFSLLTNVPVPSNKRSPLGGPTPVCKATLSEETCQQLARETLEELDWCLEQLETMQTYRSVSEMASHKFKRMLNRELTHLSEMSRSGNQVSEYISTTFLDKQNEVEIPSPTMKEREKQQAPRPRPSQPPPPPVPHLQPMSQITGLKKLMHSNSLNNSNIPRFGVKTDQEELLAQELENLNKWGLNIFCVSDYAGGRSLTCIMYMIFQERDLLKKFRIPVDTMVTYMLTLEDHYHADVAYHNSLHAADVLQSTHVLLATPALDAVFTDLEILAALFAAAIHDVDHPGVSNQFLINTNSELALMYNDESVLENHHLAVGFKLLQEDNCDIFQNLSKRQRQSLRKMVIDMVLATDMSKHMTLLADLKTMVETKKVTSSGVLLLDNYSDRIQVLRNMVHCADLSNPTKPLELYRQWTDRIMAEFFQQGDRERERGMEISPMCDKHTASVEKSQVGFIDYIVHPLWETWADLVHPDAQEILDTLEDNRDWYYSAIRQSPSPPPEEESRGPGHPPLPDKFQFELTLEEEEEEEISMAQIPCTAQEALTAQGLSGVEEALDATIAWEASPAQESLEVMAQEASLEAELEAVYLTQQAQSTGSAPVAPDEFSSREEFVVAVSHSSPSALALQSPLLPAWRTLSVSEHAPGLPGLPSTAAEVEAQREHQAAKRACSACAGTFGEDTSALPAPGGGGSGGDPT
Chain of Sodium-dependent noradrenaline transporter (P23975 whole entry): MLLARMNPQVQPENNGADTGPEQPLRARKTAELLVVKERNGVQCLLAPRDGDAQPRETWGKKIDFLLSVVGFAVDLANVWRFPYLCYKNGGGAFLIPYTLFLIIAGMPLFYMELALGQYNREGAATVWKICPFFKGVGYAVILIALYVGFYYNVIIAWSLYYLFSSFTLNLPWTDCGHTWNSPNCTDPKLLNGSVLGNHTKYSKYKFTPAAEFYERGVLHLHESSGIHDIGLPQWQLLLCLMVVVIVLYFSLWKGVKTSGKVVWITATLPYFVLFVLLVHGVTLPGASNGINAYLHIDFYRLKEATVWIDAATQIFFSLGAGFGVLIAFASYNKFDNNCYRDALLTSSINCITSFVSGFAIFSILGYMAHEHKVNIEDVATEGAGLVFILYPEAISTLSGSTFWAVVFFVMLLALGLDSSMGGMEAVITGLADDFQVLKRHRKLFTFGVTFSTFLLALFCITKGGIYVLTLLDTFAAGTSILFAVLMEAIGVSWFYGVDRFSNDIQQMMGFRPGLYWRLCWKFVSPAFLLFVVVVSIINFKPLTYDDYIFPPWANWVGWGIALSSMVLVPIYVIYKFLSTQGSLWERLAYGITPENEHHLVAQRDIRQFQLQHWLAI
Chain of D(1A) dopamine receptor (P21728 whole entry): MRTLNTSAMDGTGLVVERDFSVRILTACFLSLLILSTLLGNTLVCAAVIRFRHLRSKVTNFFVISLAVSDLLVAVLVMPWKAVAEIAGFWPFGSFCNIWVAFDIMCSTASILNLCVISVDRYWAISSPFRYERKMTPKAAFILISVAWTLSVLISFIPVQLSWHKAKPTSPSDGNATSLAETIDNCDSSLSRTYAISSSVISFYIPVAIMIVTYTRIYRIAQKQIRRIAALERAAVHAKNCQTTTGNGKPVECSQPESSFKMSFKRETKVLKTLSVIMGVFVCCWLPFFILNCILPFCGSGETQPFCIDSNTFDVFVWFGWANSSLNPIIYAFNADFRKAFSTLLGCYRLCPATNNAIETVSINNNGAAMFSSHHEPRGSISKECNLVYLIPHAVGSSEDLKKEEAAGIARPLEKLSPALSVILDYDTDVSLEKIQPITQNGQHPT
Chain of Prostaglandin G/H synthase 1 (P23219 whole entry): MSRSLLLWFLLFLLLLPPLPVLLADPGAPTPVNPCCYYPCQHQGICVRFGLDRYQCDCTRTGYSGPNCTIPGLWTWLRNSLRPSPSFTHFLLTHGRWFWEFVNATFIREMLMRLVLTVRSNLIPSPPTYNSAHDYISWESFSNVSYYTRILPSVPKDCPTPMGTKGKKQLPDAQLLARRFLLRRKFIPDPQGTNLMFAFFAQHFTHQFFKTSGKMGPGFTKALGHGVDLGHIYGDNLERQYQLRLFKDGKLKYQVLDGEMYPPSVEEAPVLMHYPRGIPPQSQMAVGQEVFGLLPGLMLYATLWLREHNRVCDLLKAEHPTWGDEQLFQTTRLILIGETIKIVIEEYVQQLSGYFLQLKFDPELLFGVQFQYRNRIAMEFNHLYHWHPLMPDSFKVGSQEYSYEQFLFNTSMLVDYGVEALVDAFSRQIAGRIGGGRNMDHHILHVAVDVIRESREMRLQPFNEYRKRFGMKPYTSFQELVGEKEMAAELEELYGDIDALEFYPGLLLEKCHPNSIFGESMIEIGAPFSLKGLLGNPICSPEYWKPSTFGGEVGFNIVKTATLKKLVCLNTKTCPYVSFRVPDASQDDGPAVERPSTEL
Chain of Sodium-dependent dopamine transporter (Q01959 whole entry): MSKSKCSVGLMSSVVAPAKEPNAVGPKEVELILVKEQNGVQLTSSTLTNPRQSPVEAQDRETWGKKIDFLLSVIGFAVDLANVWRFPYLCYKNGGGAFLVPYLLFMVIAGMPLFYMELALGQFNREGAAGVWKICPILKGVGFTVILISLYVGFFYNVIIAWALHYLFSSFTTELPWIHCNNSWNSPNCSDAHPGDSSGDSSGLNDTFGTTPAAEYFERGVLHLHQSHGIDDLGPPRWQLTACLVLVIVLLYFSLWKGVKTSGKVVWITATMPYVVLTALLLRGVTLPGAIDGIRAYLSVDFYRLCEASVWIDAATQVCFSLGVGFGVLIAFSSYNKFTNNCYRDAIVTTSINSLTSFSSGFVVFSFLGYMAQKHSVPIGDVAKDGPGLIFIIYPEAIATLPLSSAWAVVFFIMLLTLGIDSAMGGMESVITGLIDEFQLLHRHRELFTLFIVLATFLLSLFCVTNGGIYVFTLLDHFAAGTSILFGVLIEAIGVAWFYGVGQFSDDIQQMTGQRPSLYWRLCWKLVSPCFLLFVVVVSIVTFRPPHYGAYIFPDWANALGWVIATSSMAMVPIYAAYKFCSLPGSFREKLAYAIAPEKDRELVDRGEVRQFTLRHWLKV
Chain of D(3) dopamine receptor (P35462 whole entry): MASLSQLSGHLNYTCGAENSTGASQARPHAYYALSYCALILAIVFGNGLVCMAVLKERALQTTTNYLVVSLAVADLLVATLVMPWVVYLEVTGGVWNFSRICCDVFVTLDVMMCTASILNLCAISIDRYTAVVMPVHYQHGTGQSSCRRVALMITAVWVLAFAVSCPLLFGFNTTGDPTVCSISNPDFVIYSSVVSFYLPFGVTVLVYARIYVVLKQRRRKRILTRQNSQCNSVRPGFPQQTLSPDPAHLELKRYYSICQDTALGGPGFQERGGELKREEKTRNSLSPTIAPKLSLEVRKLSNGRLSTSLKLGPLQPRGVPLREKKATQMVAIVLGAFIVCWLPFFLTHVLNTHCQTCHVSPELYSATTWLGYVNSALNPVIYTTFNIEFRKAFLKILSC

Row | Structure (SMILES) | AC50 [1] | AC50 (Progesterone receptor) | AC50 (Acetylcholinesterase) | AC50 [2] | AC50 (D(1A) dopamine receptor) | AC50 (D(3) dopamine receptor) | AC50 (Prothrombin) | AC50 [3] | AC50 [4] | AC50 [5] | AC50 [6] | AC50 [7]
1 | N[C@@H](CC(=O)N1CCn2c(nnc2C(F)(F)F)C1)Cc1cc(F)c(F)cc1F [SITAGLIPTIN] | > 30 µM | > 30 µM | – | – | – | – | – | – | – | – | – | –
2 | CC(=O)O[C@]1(C(C)=O)CC[C@H]2[C@@H]3C=C(C)C4=CC(=O)CC[C@@H]4[C@H]3CC[C@@]21C [NOMEGESTROL ACETATE] | > 30 µM | – | > 30 µM | > 30 µM | > 30 µM | > 30 µM | > 30 µM | > 30 µM | > 30 µM | > 30 µM | > 30 µM | > 30 µM
3 | O=C1C(CC[S+]([O-])c2ccccc2)C(=O)N(c2ccccc2)N1c1ccccc1 (centres undefined) [SULFINPYRAZONE] | > 30 µM | > 10 µM | – | – | – | – | – | – | – | – | – | –
4 | CC(N)C12CC3CC(CC(C3)C1)C2 (centres undefined) [RIMANTADINE] | > 10 µM | > 10 µM | – | – | – | – | – | – | – | – | – | –
5 | COc1cc2nc(N3CCN(C(=O)C4CCCO4)CC3)nc(N)c2cc1OC (centres undefined) [TERAZOSIN] | > 10 µM | – | 22.9 µM | 11.8 µM | 27.8 µM | > 30 µM | > 10 µM | > 30 µM | > 30 µM | > 30 µM | > 30 µM | > 30 µM
6 | CC(C)N(CCC(C(N)=O)(c1ccccc1)c1ccccn1)C(C)C (centres undefined) [DISOPYRAMIDE] | > 10 µM | 27 µM | – | – | – | – | – | – | – | – | – | –
7 | CN(C)CCC[C@@]1(c2ccc(F)cc2)OCc2cc(C#N)ccc21 [ESCITALOPRAM] | > 30 µM | > 30 µM | – | – | – | – | – | – | – | – | – | –
8 | CN1C[C@H](C(=O)N[C@]2(C)O[C@@]3(O)[C@@H]4CCCN4C(=O)[C@H](Cc4ccccc4)N3C2=O)C=C2c3cccc4[nH]cc(c34)C[C@H]21 [ERGOTAMINE] | 0.22 µM | > 30 µM | – | – | – | – | – | – | – | – | – | –
9 | C#C[C@]1(O)CC[C@H]2[C@@H]3CCC4=CC(=O)CC[C@@H]4[C@H]3C(=C)C[C@@]21CC [ETONOGESTREL] | > 30 µM | – | > 30 µM | > 30 µM | > 30 µM | > 30 µM | > 30 µM | > 30 µM | > 30 µM | > 30 µM | > 30 µM | > 30 µM
10 | C=CC[C@@H]1/C=C(\C)C[C@H](C)C[C@H](OC)[C@H]2O[C@@](O)(C(=O)C(=O)N3CCCC[C@H]3C(=O)O[C@H](/C(C)=C/[C@@H]3CC[C@@H](O)[C@H](OC)C3)[C@H](C)[C@@H](O)CC1=O)[C@H](C)C[C@@H]2OC [TACROLIMUS ANHYDROUS] | > 10 µM | > 30 µM | – | – | – | – | – | – | – | – | – | –
11 | COc1ccccc1Oc1c(NS(=O)(=O)c2ccc(C(C)(C)C)cc2)nc(-c2ncccn2)nc1OCCO [BOSENTAN] | > 10 µM | > 30 µM | – | – | – | – | – | – | – | – | – | –
12 | C[C@]12C=CC(=O)N[C@@H]1CC[C@@H]1[C@@H]2CC[C@]2(C)[C@@H](C(=O)Nc3cc(C(F)(F)F)ccc3C(F)(F)F)CC[C@@H]12 [DUTASTERIDE] | > 10 µM | > 10 µM | – | – | – | – | – | – | – | – | – | –
13 | Cc1onc(-c2ccccc2)c1-c1ccc(S(N)(=O)=O)cc1 [VALDECOXIB] | > 10 µM | > 30 µM | > 30 µM | > 30 µM | > 30 µM | > 30 µM | > 30 µM | > 30 µM | 18.7 µM | – | 2.31 µM | > 30 µM
14 | CC(C)c1nc(N(C)S(C)(=O)=O)nc(-c2ccc(F)cc2)c1/C=C/[C@@H](O)C[C@@H](O)CC(=O)O [ROSUVASTATIN] | > 30 µM | > 30 µM | – | – | – | – | – | – | – | – | – | –
